Laboratory results as given in patent US12528782B2, “Prodrugs in the modulation of interleukin” (BRISTOL-MYERS SQUIBB COMPANY, priority 2019, dated 2026).

Assay: PK in rats after PO dosing of the prodrug of Example 1: circulating parent Compound I and prodrug
Format: in vivo
Conditions: for AUC / Cmax / Tmax: rat, in vivo, analyte = labelled substance
[1] = 5 mg/kg, Example 1 dosed PO at 5 mpk
[2] = 25 mg/kg, Example 1 dosed PO at 25 mpk
[3] = 150 mg/kg, Example 1 dosed PO at 150 mpk

Structure (SMILES): [2H]C([2H])([2H])NC(=O)c1cnc(NC(=O)C2CC2)cc1Nc1cccc(-c2nnn(C)n2)c1OC [Compound I]
- AUC Multiple+ (Example 1 dosed PO at 5 mpk): 11X
- AUC Multiple+ (Example 1 dosed PO at 25 mpk): 57X
- AUC Multiple+ (Example 1 dosed PO at 150 mpk): 473X
- AUC [1]: 19.2 ± 1.7 µM·h
- Cmax [1]: 4.91 ± 1.4 µM
- Tmax [1]: 0.5 h
- AUC [2]: 96.9 ± 13.2 µM·h
- Cmax [2]: 13 ± 1.4 µM
- Tmax [2]: 3 h
- AUC [3]: 804 ± 26.9 µM·h
- Cmax [3]: 58.2 ± 5.7 µM
- Tmax [3]: 3 h

Structure (SMILES): [2H]C([2H])([2H])NC(=O)c1cn(COP(=O)([O-])[O-])/c(=N/C(=O)C2CC2)cc1Nc1cccc(-c2nnn(C)n2)c1OC.[Na+].[Na+] [Example 1]
- circulating prodrug as % of parent (PO, 150 mpk dose): less than 0.05%
- exposure to the prodrug (circulating prodrug following administration) (PO, therapeutic doses (5 and 25 mpk)): no exposure
- AUC [3]: 0.33 ± 0.21 µM·h
- Cmax [3]: 0.69 ± 0.24 µM
- Tmax [3]: 0.25 h
